Assay results reported in ChEMBL document CHEMBL4229418, “Design, synthesis and pharmacology of aortic-selective acyl-CoA: Cholesterol O-acyltransferase (ACAT/SOAT) inhibitors” (Bioorg Med Chem, 2018).

Key:
Hamster [1] = test: Antiatherosclerotic activity in Bio F1B hamster model of diet-induced atherosclerosis assessed as plasma free cholesterol level at 3 mg/kg/day added to chow pellets (reference value: 780.8 mg/dl); type: functional, Cricetinae
Hamster [2] = test: Toxicity in Bio F1B hamster model of diet-induced atherosclerosis assessed as plasma total cholesterol level at 10 mg/kg/day added to chow pellets (reference value: 2160.1 mg/dl); type: organism-based; settings: cricetinae, in vivo
Hamster [3] = test: Toxicity in Bio F1B hamster model of diet-induced atherosclerosis assessed as plasma total cholesterol level at 1 mg/kg/day added to chow pellets (reference value: 2160.1 mg/dl); type: organism-based; settings: cricetinae, in vivo
Hamster [4] = test: Antiatherosclerotic activity in Bio F1B hamster model of diet-induced atherosclerosis assessed as plasma cholesterol ester level at 3 mg/kg/day added to chow pellets (reference value: 1379.3 mg/dl); type: functional, Cricetinae
[5] = Cmax in non-fasted Beagle dog at 30 mg/kg, po by LC-MS/MS analysis; type: ADME, organism-based, Canis lupus familiaris; design: dose 30 mg/kg, route oral; settings: in vivo
Hamster [6] = test: Antiatherosclerotic activity in Bio F1B hamster model of diet-induced atherosclerosis assessed as adrenal cholesterol ester level at 3 mg/kg/day added to chow pellets (reference value: 5.88 mg/dl); type: functional, Cricetinae
[7] = AUC (0 to 8 hrs) in non-fasted Beagle dog at 30 mg/kg, po by LC-MS/MS analysis; type: ADME, organism-based, Canis lupus familiaris; design: time < 8 hr, dose 30 mg/kg, route oral; settings: in vivo
[8] = Cmax in fasted Beagle dog at 30 mg/kg, po by LC-MS/MS analysis; type: ADME, organism-based, Canis lupus familiaris; design: dose 30 mg/kg, route oral; settings: in vivo
Hamster [9] = test: Antiatherosclerotic activity in Bio F1B hamster model of diet-induced atherosclerosis assessed as intestinal cholesterol ester level at 10 mg/kg/day added to chow pellets (reference value: 1.09 mg/dl); type: functional, Cricetinae
[10] = AUC (0 to 8 hrs) in fasted Beagle dog at 30 mg/kg, po by LC-MS/MS analysis; type: ADME, organism-based, Canis lupus familiaris; design: dose 30 mg/kg, time < 8 hr, route oral; settings: in vivo
Hamster [11] = test: Antiatherosclerotic activity in Bio F1B hamster model of diet-induced atherosclerosis assessed as liver cholesterol ester level at 10 mg/kg/day added to chow pellets (reference value: 24.04 mg/dl); type: functional, Cricetinae
Hamster [12] = test: Effect on lipid composition in Bio F1B hamster model of diet-induced atherosclerosis assessed as intestine total cholesterol level at 3 mg/kg/day added to chow pellets (reference value: 4.51 mg/dl); type: functional, Cricetinae
Hamster [13] = test: Toxicity in Bio F1B hamster model of diet-induced atherosclerosis assessed as plasma total cholesterol level at 30 mg/kg/day added to chow pellets (reference value: 2160.1 mg/dl); type: organism-based; settings: cricetinae, in vivo
Hamster [14] = test: Antiatherosclerotic activity in Bio F1B hamster model of diet-induced atherosclerosis assessed as liver cholesterol ester level at 30 mg/kg/day added to chow pellets (reference value: 24.04 mg/dl); type: functional, Cricetinae
Hamster [15] = test: Effect on lipid composition in Bio F1B hamster model of diet-induced atherosclerosis assessed as intestine total cholesterol level at 10 mg/kg/day added to chow pellets (reference value: 4.51 mg/dl); type: functional, Cricetinae
Hamster [16] = test: Antiatherosclerotic activity in Bio F1B hamster model of diet-induced atherosclerosis assessed as intestinal cholesterol ester level at 30 mg/kg/day added to chow pellets (reference value: 1.09 mg/dl); type: functional, Cricetinae
[17] = Toxicity in rat measured over 2 weeks; type: organism-based; settings: in vivo
Hamster [18] = test: Antiatherosclerotic activity in Bio F1B hamster model of diet-induced atherosclerosis assessed as plasma free cholesterol level at 30 mg/kg/day added to chow pellets (reference value: 780.8 mg/dl); type: functional, Cricetinae
Hamster [19] = test: Effect on lipid composition in Bio F1B hamster model of diet-induced atherosclerosis assessed as liver total cholesterol level at 1 mg/kg/day added to chow pellets (reference value: 31.99 mg/dl); type: functional, Cricetinae
Hamster [20] = test: Antiatherosclerotic activity in Bio F1B hamster model of diet-induced atherosclerosis assessed as reduction in lipid accumulation areas in aortic arch at 10 mg/kg/day added to chow pellets by oil red O staining based assay relative to control; type: functional; settings: Cricetinae
Hamster [21] = test: Antiatherosclerotic activity in Bio F1B hamster model of diet-induced atherosclerosis assessed as liver free cholesterol level at 10 mg/kg/day added to chow pellets (reference value: 7.94 mg/dl); type: functional, Cricetinae
Hamster [22] = test: Effect on lipid composition in Bio F1B hamster model of diet-induced atherosclerosis assessed as adrenal total cholesterol level at 10 mg/kg/day added to chow pellets (reference value: 10.54 mg/dl); type: functional, Cricetinae
Hamster [23] = test: Antiatherosclerotic activity in Bio F1B hamster model of diet-induced atherosclerosis assessed as intestinal free cholesterol level at 10 mg/kg/day added to chow pellets (reference value: 3.41 mg/dl); type: functional, Cricetinae
Hamster [24] = test: Antiatherosclerotic activity in Bio F1B hamster model of diet-induced atherosclerosis assessed as liver free cholesterol level at 30 mg/kg/day added to chow pellets (reference value: 7.94 mg/dl); type: functional, Cricetinae
Hamster [25] = test: Antiatherosclerotic activity in Bio F1B hamster model of diet-induced atherosclerosis assessed as liver free cholesterol level at 3 mg/kg/day added to chow pellets (reference value: 7.94 mg/dl); type: functional, Cricetinae
Hamster [26] = test: Antiatherosclerotic activity in Bio F1B hamster model of diet-induced atherosclerosis assessed as reduction in lipid accumulation areas in aortic arch at 30 mg/kg/day added to chow pellets by oil red O staining based assay relative to control; type: functional; settings: Cricetinae
Hamster [27] = test: Antiatherosclerotic activity in Bio F1B hamster model of diet-induced atherosclerosis assessed as intestinal free cholesterol level at 1 mg/kg/day added to chow pellets (reference value: 3.41 mg/dl); type: functional, Cricetinae
Hamster [28] = test: Effect on lipid composition in Bio F1B hamster model of diet-induced atherosclerosis assessed as intestine total cholesterol level at 1 mg/kg/day added to chow pellets (reference value: 4.51 mg/dl); type: functional, Cricetinae
[29] = Cmax in non-fasted Sprague-Dawley rat at 30 mg/kg, po by LC-MS/MS analysis; type: ADME, organism-based; design: dose 30 mg/kg, route oral; settings: in vivo

Cmax [5]: 582 ng/mL | AUC(0-t) at 8 h [7]: 2960 ng·h/mL | Cmax [8]: 5 ng/mL | AUC(0-t) at 8 h [10]: 14 ng·h/mL | Cmax [29]: 107 ng/mL
SMILES: CC(C)c1cccc(C(C)C)c1NC(=O)CCCCCCCCSc1nc2ccccc2o1
Activity (Hamster [1]): 801.5 mg/dL | Activity (Hamster [2]): 1291.7 mg/dL | Activity (Hamster [3]): 2340.8 mg/dL | Activity (Hamster [4]): 1439.6 mg/dL | Activity (Hamster [6]): 6.02 mg/dL | Activity (Hamster [9]): 0.31 mg/dL | Activity (Hamster [11]): 7.65 mg/dL | Activity (Hamster [12]): 4.12 mg/dL | Activity (Hamster [13]): 476.3 mg/dL | Activity (Hamster [14]): 0.69 mg/dL | Activity (Hamster [15]): 4.07 mg/dL | Activity (Hamster [16]): 0.24 mg/dL | NOAEL at 336 h [17]: 30 mg/kg | Activity (Hamster [18]): 217.2 mg/dL | Activity (Hamster [19]): 30.75 mg/dL | inhibition in vivo at 10 mg/kg/day (Hamster [20]): 42% | Activity (Hamster [21]): 3.87 mg/dL | Activity (Hamster [22]): 7 mg/dL | Activity (Hamster [23]): 3.82 mg/dL | Activity (Hamster [24]): 2.43 mg/dL | Activity (Hamster [25]): 5.95 mg/dL | inhibition in vivo at 30 mg/kg/day (Hamster [26]): 7% | Activity (Hamster [27]): 3.43 mg/dL | Activity (Hamster [28]): 4.4 mg/dL
